Entries after “also recorded” stand apart in the source; their conditions may differ. Bridge positions count the residues as written; N and C are the ends. Peptide text beside a SMILES is read from it.

Test [1] deals with anti-MTX mice polyclonal antibodies. Kind of test: ELISA cross-antigenicity with anti-MTX serum. Format: binding, mouse. As for the experimental part:
Upon retrieval of pre-immune serum via retro-orbital puncture, 30 µg of MTX1 or saline (0.9% NaCl) in complete Freund’s adjuvant was subcutaneously administered to 6-week-old mice on day 1. Subsequent booster injections of incomplete Freund’s adjuvant were administered 15 and 25 days later. On […], the mice were bled and used for ELISA experiments in 96-well microtitration plates (catalog number M5785-1CS Sigma Aldrich, MO, USA). […] The optimal dilution of the immune serum resulting in half-maximum binding of MTX to its specific antiserum was determined to be 1/100,000.
The specificity of anti-MTX against MTX1 and CHTX toxins was assessed using ELISA. One hundred microliters of 5 μg/mL of antigen (MTX1 and CHTX) in 0.1 M sodium bicarbonate buffer at pH 9.6 were adsorbed on 96-well NUNC plates for 90 min at 37 °C. […] Finally, 200 μL of 0.4 mg/mL OPD in citrate buffer (pH 5.2 containing H2O2 (0.03%) was added to each well, followed by a 5 min incubation in the dark at room temperature. The reaction was halted by adding 50 μL of 2 N sulfuric acid. The absorbance at 492 nm was measured using a spectrophotometer (Thermo-Multiskan EX, Shanghai, China). The immune serum titer corresponded to the dilution that yielded 50% of the maximum absorbance.

Another test deals with T1, rat Kv1.3 (Rattus norvegicus, UniProt P15384).
T1 construct: expressed in transfected cells; host or cells: Xenopus laevis oocytes, cRNA injection
Kind of test: Two-electrode voltage clamp, Kv1.3 expressed in Xenopus laevis oocytes. It is filed as cell-based. The source says:
4.11. Oocyte Preparation and Electrophysiological Recordings
The xenopus was anesthetized in a bath of tricaine solution. It was then placed on its back in a dissecting tank covered with alcohol-cleaned BenchGuard paper. A horizontal slit was made in the animal’s lower abdomen by incising a piece of the underlying muscle with the skin. The ootheca were then gently pulled outwards and a portion was cut out and transferred to a sterile Erlen tube containing MBS medium, leaving the rest in place in the ovary. Finally, the incision was closed using sterile, absorbable sutures.
Xenopus laevis oocytes at stages V and VI were retrieved and prepared for cRNA injection and electrophysiological recordings. The enzymatic elimination of oocyte follicular cell layers was carried out by employing 2 mg·mL^−1 collagenase IA (Sigma, St. Louis, MO, USA) in the classical Barth’s medium containing (in mm) 88 NaCl, 1 KCl, 0.82 MgSO4, 0.33 Ca(NO3)2, 0.41 CaCl2, 2.4 NaHCO3, and 15N-2-hydroxyethylpiperazine-N′-ethanesulfonic acid (Hepes), with a pH of 7.4 (NaOH). The plasmids were digested using Xba1 (rat Kv1.2) and EcoR1 (rat Kv1.3). The resultant linearized plasmids were transcribed using either a T7 or SP6 mMessage mMachine transcription kit (Ambion, Austin, TX, USA). Subsequently, cRNAs (1 µg·µL^−1) were cryopreserved in H2O at −80 °C. Injection of cells with 50 nL of cRNA (0.2 µg·µL^−1 rat Kv1.2, or Kv1.3 channels) took place 2 days later. To promote the expression of ion channels, the cells were cultured at 16 °C in a specified nutrient oocyte medium for 2–6 days prior to conducting current recordings. Oocyte currents were captured at 20–22 °C using conventional two-microelectrode techniques with a voltage-clamp amplifier (GeneClamp 500; Axon Instruments, Foster City, CA, USA) linked to a 16-bit AD/DA converter (Digidata 1200A, Axon Instruments). […] Voltage pulses were administered every 15 s, maintaining a holding potential of −80 mV. Current data were sampled at 10 kHz, subjected to low-pass filtration at 2 kHz through an eight-pole Bessel filter and archived on a computer for subsequent assessment. The extracellular solution for recording contained (in mM) 88 NaCl, 10 KCl, 2 MgCl2, 0.5 CaCl2, 0.5 niflumic acid, 5 Hepes, and 0.1% bovine serum albumin, with a pH of 7.4 (NaOH). The P/4 protocol was implemented for online subtraction of the leak and capacitive currents. Any residual capacitive artifacts were eliminated for visualization purposes. The peptide solutions of MTX1 were perfused into the recording chamber at a flow rate of 2 mL/min using a ValveBank4 apparatus (Automate Scientific Inc., St Berkeley, CA 94710, USA). Data analysis was conducted using the software patch clamp 6.0.3 (Axon Instruments, Foster City, CA, USA). The outcomes are presented as the mean ± SEM.

T1 sequence (P15384 whole entry): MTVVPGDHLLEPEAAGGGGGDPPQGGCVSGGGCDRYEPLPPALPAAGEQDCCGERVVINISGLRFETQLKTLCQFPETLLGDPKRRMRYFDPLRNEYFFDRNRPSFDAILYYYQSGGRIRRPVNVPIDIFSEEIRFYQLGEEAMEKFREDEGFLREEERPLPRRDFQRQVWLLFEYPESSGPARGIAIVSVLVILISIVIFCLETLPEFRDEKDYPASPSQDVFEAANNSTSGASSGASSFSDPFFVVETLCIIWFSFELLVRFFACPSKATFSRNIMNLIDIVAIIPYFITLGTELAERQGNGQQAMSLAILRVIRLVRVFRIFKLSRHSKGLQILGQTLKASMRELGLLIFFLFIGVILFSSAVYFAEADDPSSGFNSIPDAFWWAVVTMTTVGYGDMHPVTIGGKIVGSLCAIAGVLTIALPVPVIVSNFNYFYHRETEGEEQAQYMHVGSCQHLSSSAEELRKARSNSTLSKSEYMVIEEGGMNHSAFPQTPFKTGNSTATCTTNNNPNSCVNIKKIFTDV

Turning to `CSCC[C@@H]1NC(=O)[C@@H]2CSSC[C@H](NC(=O)[C@H](CO)NC(=O)[C@@H](N)C(C)C)C(=O)N[C@@H]([C@@H](C)O)C(=O)NCC(=O)N[C@@H](CO)C(=O)N[C@@H](CCCCN)C(=O)N[C@@H](CCC(=O)O)C(=O)N[C@@H](CSSC[C@@H](C(=O)N[C@@H](CCCCN)C(=O)N[C@H]3CSSC[C@@H](C(N)=O)NC(=O)CNC(=O)[C@H](Cc4ccc(O)cc4)NC3=O)NC(=O)[C@H](CCCCN)NC(=O)[C@H](CCCNC(=N)N)NC(=O)[C@H](CC(N)=O)NC1=O)C(=O)N[C@@H](Cc1ccc(O)cc1)C(=O)N[C@@H](C)C(=O)N1CCC[C@H]1C(=O)N[C@H]1CSSC[C@H](NC(=O)CNC(=O)[C@H]([C@@H](C)O)NC(=O)[C@H](CCC(N)=O)NC(=O)[C@H](CCCCN)NC(=O)[C@H](CCCCN)NC1=O)C(=O)N1CCC[C@H]1C(=O)N[C@@H](CC(N)=O)C(=O)N[C@@H](C)C(=O)N[C@@H](CCCCN)C(=O)N2` [MTX1] (H-VSCTGSKECYAPCKKQTGCPNAKCMNRKCKCYGC-NH2; disulfide 3-24, 9-29, 13-19, 31-34; N-terminus and C-terminus assumed), the “Recognition by anti-MTX antibodies” value in test [1] (different dilutions of anti-MTX mice polyclonal antibodies) was “well recognized by anti-MTX antibodies; also recorded: distinctly recognized”. In addition, the “IC50 of anti-MTX serum binding relative to MTX” value in test [1] (plates coated with 5 µg/mL antigen) is listed as “identical”. In addition, the “Reduction of outward Kv1.3 currents over voltage” value on rat Kv1.3 (2.5 nM, extracellular application) was “markedly reduced outward Kv1.2 and Kv1.3 currents at all test voltages examined”. Also, the “Block of Kv1.3 relative to MTX” value at rat Kv1.3 (comparison in words) is “comparable effect to MTX; also recorded: in a comparable manner to MTX”. Besides, the “Reversibility on washing, Kv1.3” value at rat Kv1.3 (kinetics of inhibition, after washing) is “partial recovery after the washing”. The “Hill coefficient, Kv1.3 concentration-response” value on rat Kv1.3 (oocytes, one value printed for Kv1.2 and Kv1.3) amounted to 1.1 ± 0.1.

(Values after article PMC11477167, “Structure–Function Relationship of a Novel MTX-like Peptide (MTX1) Isolated and Characterized from the Venom of the Scorpion Maurus palmatus” (International Journal of Molecular Sciences, 2024).)
